Data from US20240350575A1, “PLANT EXTRACT FOR ALLEVATING PULMONARY FIBROSIS, AND PREPARATION METHOD AND USE THEREOF” (Guangdong GreenTech Lemon Innovations Co., Ltd., priority 2023, published 2024).

Assays:
Format in all cases: in vivo, SD rats
[1] = tested on: rat models of pulmonary fibrosis; assay: Lung coefficient in bleomycin-induced rat models of pulmonary fibrosis; conditions: wet lung weight/body weight x100%, bleomycin rats, intragastric 5 mL/kg daily
From the text: (§1) The present experimental example explored the influence of the plant extract solution prepared in Embodiments 1-3 on the body weight and lung coefficient of rats. The method was as follows:
(§2) 80 healthy SD rats including half males and half females with a body weight of 230 g±10 g were selected and divided into a blank group, a model group, embodiment group 1, embodiment group 2, embodiment group 3, comparative example group 1, comparative example group 2 and a positive control group, each group consisting of 10 rats. After the rats in each group were raised regularly for one week, each rat was intraperitoneally injected with 4% chloral hydrate at an injection dose of 10 ml/kg. The anesthetized rats were fixed in a supine position, and the rat necks were subjected to hair removal, disinfected with iodine alcohol, and longitudinally cut to expose tracheas. Except for the blank group, the rats in each group were pierced with an injector by 1 cm toward the heart through a gap between two tracheal cartilage rings, and after resistance-free withdrawal, bleomycin was injected into the trachea at a dose of 5 mg/kg. The blank group was injected with an equal volume of normal saline. Immediately after injection, the rats were rotated upright for 5 min to fully distribute the medicament in the lungs. Various layers of tissues were sutured, and local alcohol disinfection was performed. […]

[2] = tested on: rat models of pulmonary fibrosis; assay: Body weight in bleomycin-induced rat models of pulmonary fibrosis
From the text: as §1
80 healthy SD rats including half males and half females with a body weight of 230 g±10 g were selected and divided into a blank group, a model group, embodiment group 1, embodiment group 2, embodiment group 3, comparative example group 1, comparative example group 2 and a positive control group, each group consisting of 10 rats. After the rats in each group were raised regularly for one week, each rat was intraperitoneally injected with 4% chloral hydrate at an injection dose of 10 ml/kg. The anesthetized rats were fixed in a supine position, and the rat necks were subjected to hair removal, disinfected with iodine alcohol, and longitudinally cut to expose tracheas. Except for the blank group, the rats in each group were pierced with an injector by 1 cm toward the heart through a gap between two tracheal cartilage rings, and after resistance-free withdrawal, bleomycin was injected into the trachea at a dose of 5 mg/kg. The blank group was injected with an equal volume of normal saline. Immediately after injection, the rats were rotated upright for 5 min to fully distribute the medicament in the lungs. Various layers of tissues were sutured, and local alcohol disinfection was performed. 24 hours after modeling, the rats in the blank group and the model group were intragastrically administered with normal saline at a dose of 5 mL/kg every day, the rats in the positive control group were intragastrically administered with prednisone acetate at a dose of 5 mL/kg every day, and the rats in embodiment groups 1-3 and comparative example groups 1-2 were intragastrically administered with corresponding plant extract at a dose of 5 mL/kg continuously for 28 d. During this period, the rats in each group were raised according to a conventional method.
(1) Body weight: weighed the rats in each group on the day of intragastric administration, and weighed the rats in each group every 7 d.

[3] = tested on: rat models of pulmonary fibrosis; assay: Hydroxyproline content in lung tissues of rat models of pulmonary fibrosis; conditions: lung tissue, bleomycin rats, after intragastric administration 5 mL/kg daily for 28 d
Method: as §2

SMILES: CC(=O)OCC(=O)[C@@]1(O)CC[C@H]2[C@@H]3CCC4=CC(=O)C=C[C@]4(C)[C@H]3C(=O)C[C@@]21C [Positive control group, prednisone acetate]
- Lung coefficient on the 14th day ([1]; day 14): 0.568%
- Lung coefficient on the 28th day ([1]; day 28): 0.594%
- Initial weight ([2]; baseline, day of first intragastric administration, 24 h after bleomycin 5 mg/kg intratracheal): 228.1 g
- Weight on the 7th day ([2]; bleomycin rats, intragastric 5 mL/kg daily, day 7): 253.2 g
- Weight on the 14th day ([2]; bleomycin rats, intragastric 5 mL/kg daily, day 14): 260.7 g
- Weight on the 21st day ([2]; bleomycin rats, intragastric 5 mL/kg daily, day 21): 267.6 g
- Weight on the 28th day ([2]; bleomycin rats, intragastric 5 mL/kg daily, day 28): 273.2 g
- Hydroxyproline content [3]: 0.847 µg/mg
